In a melting point compilation (Tetko et al.; mined from patent text by program, amines drawn as free bases though some values may be those of a salt):

SMILES	melting point
O=S1(=O)c2ccccc2C=Cc2ccc(C=Nc3ccccc3)cc21	184 to 185 °C
CCCCN(CCCC)CCCOc1ccc(-c2cn3cccc(C)c3n2)c(C)c1	78 to 81 °C
COc1cc2c(cc1OC)[C@@H]1CCCC[C@@H]1N=C2c1ccc(N(S(=O)(=O)c2ccc(C)cc2)S(=O)(=O)c2ccc(C)cc2)cc1 (racemic)	120 to 130 °C
CSC(=S)C1(c2cccc(C)n2)SCCCS1	92 °C
CCCCn1c(=O)[nH]c(=O)c2c1ncn2CC(C)=O	218 °C
O=C(O)CCCCCCC1(CCCCCCC(=O)O)C(=O)NC(=O)N1CCC(O)C1CCCCC1 (stereo not drawn)	116 to 118 °C
OC1(c2cccn2Cc2ccccc2F)CCN(CCc2ccccc2)CC1	130 to 131 °C
COc1cccc2c(CN3CC=C(CCc4ccccc4)CC3)c[nH]c12	131 to 133 °C
Cc1c(Cl)cccc1S(=O)(=O)Nc1ccc2onc(C)c2c1	163 °C
COc1ccc(C)cc1NC(=O)Nc1ccc(N2CCN(C(=O)OC(C)(C)C)CC2)cc1C	169 to 171 °C
COc1cccc(Nc2c(N)cc(C(=O)O)cc2S(N)(=O)=O)c1	232 to 234 °C
NS(=O)C12CC3CC(CC(C3)C1)C2 (stereo not drawn)	139 to 141 °C
Cc1ncc2c(c1O)COC2(C)C	247 °C
O=[N+]([O-])c1cccc(Nc2nccc(-c3ccccn3)n2)c1	213 to 219 °C
Cn1c(=O)c([N+](=O)[O-])c(O)c2ccccc21	193 °C
CC(=O)N(C)c1cc2c(nc(C)n2C)c(O)c1CN(C)C	181 to 184 °C
CCC(=C(c1ccc(I)cc1)c1ccc(OCCCCl)cc1)c1ccccc1	98 to 100 °C
COc1c(C(=O)Nc2ccc(OCC(C)(C)C)c(C#N)c2)cnn1-c1ccc(F)cc1	120 to 123 °C
CCCCCCN(C)c1ccc(C=C2SC(=S)N(CC(=O)NS(=O)(=O)c3ccccc3)C2=O)cc1	173 to 177 °C
O=C1CCC(N2Cc3c(OCc4ccc(CNC5CCCCC5)cc4)cccc3C2=O)C(=O)N1 (stereo not drawn)	175 to 177 °C
CCn1c(=O)c(C(=O)NCCO)c(NCCO)c2cnc(-c3ccccc3)nc21	250 to 253 °C
CCN(CC)CCOc1ccc(NC(=O)C#Cc2ccc(C(F)(F)F)cc2Cl)cc1N	127 to 130 °C
CS(=O)(=O)c1ccc(-c2cc(CO)nn2C2CCCCCC2)cc1	116 to 118 °C
COc1cc(Nc2nccc(-c3ccc(NCCCCO)nc3)n2)cc(OC)c1OC	170 to 171 °C
CSc1cc2c(cc1C(F)(F)F)N(C(=O)Nc1cccc(C(=O)NN3CCC(N(C)C)C3)c1)CC2 (stereo not drawn)	114 to 116 °C
CCOc1cc(C(CS(C)(=O)=O)N2C(=O)c3cccc(Cc4ccc[nH]4)c3C2=O)ccc1OC (stereo not drawn)	80 to 82 °C
CC(C)N1CCN(c2ccc(OCCCCCCC(O)(Cn3ccnc3)c3ccc(Cl)cc3Cl)cc2)CC1 (stereo not drawn)	143 to 145 °C
CN1C(=O)C(C(=O)c2ccc(Cl)cc2Cl)C(=O)N(C)C1=O	123 to 127 °C
O=C1NC(=O)C(c2ccc(F)cc2)(c2ccc(F)cc2)C(=O)N1	315 to 318 °C
CC(C)(C)c1cc(CCc2ccccc2NC(=O)N2CCCCC2CCOCc2ccccc2)cc(C(C)(C)C)c1O (stereo not drawn)	113 to 114 °C

Second part, the compound after the results:

melting point	SMILES
94 to 95 °C	O=S(=O)(On1nnc2ccccc21)c1ccc(Cl)cc1
125 to 131 °C	CCc1nc(C)c(CC(=O)N(CC)CC)c(=O)n1Cc1ccc(-c2ccccc2-c2nnn[nH]2)cc1
206 to 209 °C	Cc1cn2c(=O)c3cc(S(=O)(=O)Cl)ccc3nc2s1
124 to 125 °C	O=C(CCc1ccccc1)N[C@H](Cc1ccc(C(F)(F)F)cc1)[C@@H](O)c1ccccc1F (racemic)
112 to 114 °C	CS(=O)(=O)n1cc(-c2ccccc2)c(=O)n1-c1ccccn1
147 to 149 °C	CCCn1nc2c(N)nc3c(c2c1CCCc1cc(C(C)C)no1)CCCC3
120 to 121 °C	COc1cccc(Sc2ccnc(Nc3cc(OC)c(OC)c(OCCN4CCCC4)c3)n2)c1
134 °C	CC(=O)Nc1ccc2cccc(Oc3cc(N4CCN([C@H](C)c5ccc(F)cc5)CC4)ncn3)c2n1
172 to 175 °C	COc1ccc(C2(CC(=O)O)CNC(=O)C2)cc1 (stereo not drawn)
192 to 193 °C	CN(C)C(=O)N1CCc2ccc(S(N)(=O)=O)cc2CC1
80 to 83 °C	COC(=O)C(CCCCNC(=O)OCc1ccccc1)NC(=O)CCC(C)C1CCC2C3C(O)CC4CC(O)CCC4(C)C3CC(O)C12C (stereo not drawn)
161 to 162 °C	COc1cc(COc2nn(-c3ccccc3)cc2C=O)ccc1OCc1nc(-c2cccnc2)oc1C
158 to 160 °C	CC(=O)N1CCC(CCC(=O)c2ccc(N(C)C)cc2)CC1
120 °C	CCOc1cc(C2=NN(Cc3ccc(N)cc3)C(=O)CC2)ccc1OC
136 to 137 °C	CC1CCc2ncc(C(=O)NN)c(=O)n21 (stereo not drawn)
158 to 159 °C	Cc1ncnn1-c1cc(F)ccc1CNC(=O)c1nc2n(c(=O)c1OCc1ccccc1)CCN2C(C)C
197 to 198 °C	O=c1nc(-c2ccccn2)sc2ccc(OCCCO)cc12
145 to 151 °C	NC(=O)[C@H](CO)Nc1nc(SCc2cccc(F)c2F)nc2nc(N)sc12
